Experimental data taken from patent US8466089B2, “Pyrazole compounds, process for their production and herbicides containing them” (Ishihara Sangyo Kaisha, Ltd., priority 2008, dated 2013).

Assays:
Format in all cases: in vivo
[1] = system: rice (Oryza sativa L.) (var.: Nihonbare); experiment: Test Example 3, paddy field pot, transplanted rice; conditions: applied 4th day after transplantation, 20th to 23rd day after application, read-out: Growth inhibition rate (%) Rice
Description: (§1) Paddy field soil was put into a 1/1,000,000 hectare pot, and seeds of barnyardgrass (Echinochloa oryzicola vasing.) and Japanese bulrush (Scirpus juncoides) were sown and lightly covered with soil. Then, pot was left to stand in a greenhouse in a state irrigated to a water depth of from 0.5 to 1 cm, and next day or two days later, tubers of Japanese ribbon waparo (Sagittaria pygmaea) were planted. Then, the irrigated water depth was maintained to be from 3 to 4 cm, and when barnyardgrass and Japanese bulrush reached 0.5 leaf stage, and Japanese ribbon waparo reached primary leaf stage, a water diluted solution of a wettable powder or an emulsifiable concentrate of the compound of the present invention prepared in accordance with a conventional preparation method, was uniformly dropwise applied by a pipette so that the amount of active ingredients would be a prescribed amount. Further, paddy field soil was put into a 1/1,000,000 pot, followed by soil puddling to an irrigated water depth of from 3 to 4 cm. Next day, rice (Oryza sativa L.) (var.: Nihonbare) of two leaf stage was transplanted in a transplantation depth of 3 cm. On the 4th day after transplantation, the compound of the present invention was applied in the same manner as described above.
(§2) On the 13th to 17th day after application, the state of growth of barnyardgrass, Japanese bulrush and Japanese ribbon waparo was visually observed, and on the 20th to 23rd day after application, the state of growth of rice was visually observed, and the herbicidal effect was evaluated by a growth inhibition rate (%) of 0 (equivalent to the non-treated area) to 100% (complete kill).

[2] = system: barnyardgrass (Echinochloa oryzicola vasing.); experiment: Test Example 3, paddy field pot, application to irrigated water; conditions: applied at 0.5 leaf stage, 13th to 17th day after application, read-out: Growth inhibition rate (%) barnyard grass
Description: as §1, §2

[3] = system: Japanese bulrush (Scirpus juncoides); experiment: as above; conditions: Schoenoplectiella juncoides, applied at 0.5 leaf stage, 13th to 17th day after application, read-out: Growth inhibition rate (%) Japanese bulrush
Description: as §1, §2

[4] = system: Japanese ribbon waparo (Sagittaria pygmaea); experiment: as above; conditions: applied at primary leaf stage, 13th to 17th day after application, read-out: Growth inhibition rate (%) Japanese ribbon waparo
Description: as §1, §2

[5] = system: redroot pigweed (Amaranthus retroflexus L.); experiment: Test Example 2, soil application on the day after sowing; conditions: 21st to 22nd day after application, visual, read-out: Growth inhibition rate (%) Redroot pigweed
Description: (§3) Upland field soil was put into a 1/170,000 hectare pot, and seeds of various plants (barnyardgrass (Echinochloa crus-galli L.), crabgrass (Digitaria sanquinalis L.), green foxtail (Setaria viridis L.), redroot pigweed (Amaranthus retroflexus L.), prickly sida (Sida spinosa L.), velvetleaf (Abutilon theophrasti MEDIC.), rice (Oryza sativa L.), corn (Zea mays L.), soybean (Glycine max Merr.)) and wheat (Triticum spp.) were sown. On the day after sowing, wettable powders or emulsifiable concentrates of the compounds of the present invention prepared in accordance with a conventional preparation method, were weighed so that the active ingredients became the prescribed amounts, and diluted with water in an amount corresponding to 500 liter per 1 hectare, followed by soil application with a small sprayer.
(§4) On the 21st to 22nd day after the application, the state of growth of the respective plants was visually observed, and the herbicidal effect was evaluated by a growth inhibition rate (%) of from 0 (equivalent to the non-treated area) to 100% (complete kill).

[6] = system: velvetleaf (Abutilon theophrasti MEDIC.); experiment: as above; conditions: 21st to 22nd day after application, visual, read-out: Growth inhibition rate (%) Velvetleaf
Description: as §3, §4

rice (Oryza sativa L.) [7] = experiment: as above; conditions: 21st to 22nd day after application, visual, read-out: Growth inhibition rate (%) Rice
Description: as §3, §4

[8] = system: green foxtail (Setaria viridis L.); experiment: as above; conditions: 21st to 22nd day after application, visual, read-out: Growth inhibition rate (%) Green foxtail
Description: as §3, §4

[9] = system: barnyardgrass (Echinochloa crus-galli L.); experiment: as above; conditions: 21st to 22nd day after application, visual, read-out: Growth inhibition rate (%) Barnyardgrass
Description: as §3, §4

[10] = system: soybean (Glycine max Merr.); experiment: as above; conditions: 21st to 22nd day after application, visual, read-out: Growth inhibition rate (%) Soybean
Description: as §3, §4

wheat (Triticum spp.) [11] = experiment: as above; conditions: 21st to 22nd day after application, visual, read-out: Growth inhibition rate (%) Wheat
Description: as §3, §4

corn (Zea mays L.) [12] = experiment: as above; conditions: 21st to 22nd day after application, visual, read-out: Growth inhibition rate (%) Corn
Description: as §3, §4

[13] = system: prickly sida (Sida spinosa L.); experiment: as above; conditions: 21st to 22nd day after application, visual, read-out: Growth inhibition rate (%) Prickly sida
Description: as §3, §4

[14] = system: crabgrass (Digitaria sanquinalis L.); experiment: as above; conditions: 21st to 22nd day after application, visual, read-out: Growth inhibition rate (%) Crabgrass
Description: as §3, §4

[15] = system: crabgrass (Digitaria sanguinalis L.); experiment: Test Example 1, foliar treatment in upland pots; conditions: 20th to 22nd day after application, visual, read-out: Growth inhibition rate (%) Crabgrass
Description: (§5) Upland field soil was put into a 1/170,000 hectare pot, and seeds of various plants were sown. When the respective plants reached predetermined leaf stage ((1) barnyardgrass (Echinochloa crus-galli L.): 1.2 to 3.0 leaf stage, (2) crabgrass (Digitaria sanguinalis L.): 1.0 to 3.0 leaf stage, (3) green foxtail (Setaria viridis L.): 1.5 to 3.0 leaf stage, (4) redroot pigweed (Amaranthus retroflexus L.): cotyledon stage to 1.5 leaf stage, (5) prickly sida (Sida spinosa L.): cotyledon stage to 2.0 leaf stage, (6) velvetleaf (Abutilon theophrasti MEDIC.): cotyledon stage to 1.3 leaf stage, (7) rice (Oryza sativa L.): 1.2 to 2.5 leaf stage, (8) corn (Zea mays L.): 2.0 to 3.3 leaf stage, (9) soybean (Glycine max Merr.): primary leaf stage to 0.3 leaf stage) and wheat (Triticum spp.): 2.0 to 3.0 leaf stage, wettable powders or emulsifiable concentrates of the compounds of the present invention prepared in accordance with a conventional preparation method, were weighed so that the active ingredients became the prescribed amounts, and diluted with water in an amount corresponding to 500 liter per 1 hectare (containing 0.1 vol % of an agricultural spreader (“KUSARINOH”, manufactured by NIHON NOHYAKU CO., LTD.)). The spray solutions thus prepared were applied for foliar treatment by a small sprayer.
(§6) On the 20th to 22nd day after application, the state of growth of the respective plants was visually observed, and the herbicidal effect was evaluated by a growth inhibition rate (%) of 0 (equivalent to the non-treated area) to 100% (complete kill).

[16] = system: redroot pigweed (Amaranthus retroflexus L.); experiment: Test Example 1, foliar treatment in upland pots; conditions: 20th to 22nd day after application, visual, read-out: Growth inhibition rate (%) Redroot pigweed
Description: as §5, §6

[17] = system: velvetleaf (Abutilon theophrasti MEDIC.); experiment: Test Example 1, foliar treatment in upland pots; conditions: 20th to 22nd day after application, visual, read-out: Growth inhibition rate (%) Velvetleaf
Description: as §5, §6

rice (Oryza sativa L.) [18] = experiment: Test Example 1, foliar treatment in upland pots; conditions: 20th to 22nd day after application, visual, read-out: Growth inhibition rate (%) Rice
Description: as §5, §6

[19] = system: green foxtail (Setaria viridis L.); experiment: Test Example 1, foliar treatment in upland pots; conditions: 20th to 22nd day after application, visual, read-out: Growth inhibition rate (%) Green foxtail
Description: as §5, §6

[20] = system: barnyardgrass (Echinochloa crus-galli L.); experiment: Test Example 1, foliar treatment in upland pots; conditions: 20th to 22nd day after application, visual, read-out: Growth inhibition rate (%) Barnyardgrass
Description: as §5, §6

[21] = system: soybean (Glycine max Merr.); experiment: Test Example 1, foliar treatment in upland pots; conditions: 20th to 22nd day after application, visual, read-out: Growth inhibition rate (%) Soybean
Description: as §5, §6

wheat (Triticum spp.) [22] = experiment: Test Example 1, foliar treatment in upland pots; conditions: 20th to 22nd day after application, visual, read-out: Growth inhibition rate (%) Wheat
Description: as §5, §6

corn (Zea mays L.) [23] = experiment: Test Example 1, foliar treatment in upland pots; conditions: 20th to 22nd day after application, visual, read-out: Growth inhibition rate (%) Corn
Description: as §5, §6

[24] = system: prickly sida (Sida spinosa L.); experiment: Test Example 1, foliar treatment in upland pots; conditions: 20th to 22nd day after application, visual, read-out: Growth inhibition rate (%) Prickly sida
Description: as §5, §6

SMILES: CCOCc1c(S(C)(=O)=O)ccc(C(=O)c2cnn(C)c2OC(C)OC(=O)OC)c1C (stereo not shown) [Compound No. 1-1, 1-(4-(3-(Ethoxymethyl)-2-methyl-4-(methylsulfonyl)benzoyl)-1-methyl-1H-pyrazol-5-yloxy)ethyl methyl carbonate]
- inhibition at 63 g/ha [1]: 10%
- inhibition at 63 g/ha [2]: 100%
- inhibition at 63 g/ha [3]: 70%
- inhibition at 63 g/ha [4]: 90%
- inhibition at 250 g/ha [5]: 90%
- inhibition at 250 g/ha [6]: 98%
- inhibition at 250 g/ha (rice (Oryza sativa L.) [7]): 95%
- inhibition at 250 g/ha [8]: 98%
- inhibition at 250 g/ha [9]: 100%
- inhibition at 250 g/ha [10]: 20%
- inhibition at 250 g/ha (wheat (Triticum spp.) [11]): 20%
- inhibition at 250 g/ha (corn (Zea mays L.) [12]): 10%
- inhibition at 250 g/ha [13]: 90%
- inhibition at 250 g/ha [14]: 100%
- inhibition at 7 g/ha [15]: 90%
- inhibition at 7 g/ha [16]: 60%
- inhibition at 7 g/ha [17]: 50%
- inhibition at 7 g/ha (rice (Oryza sativa L.) [18]): 20%
- inhibition at 7 g/ha [19]: 60%
- inhibition at 7 g/ha [20]: 95%
- inhibition at 7 g/ha [21]: 70%
- inhibition at 7 g/ha (wheat (Triticum spp.) [22]): 0%

SMILES: COCc1c(S(C)(=O)=O)ccc(C(=O)c2cnn(C)c2OC(C)OC(=O)OC)c1C (stereo not shown) [Compound No. 1-3, 1-(4-(3-(Methoxymethyl)-2-methyl-4-(methylsulfonyl)benzoyl)-1-methyl-1H-pyrazol-5-yloxy)ethyl methyl carbonate]
- inhibition at 63 g/ha [1]: 40%
- inhibition at 63 g/ha [2]: 100%
- inhibition at 63 g/ha [3]: 70%
- inhibition at 63 g/ha [4]: 70%
- inhibition at 250 g/ha [5]: 98%
- inhibition at 250 g/ha [6]: 100%
- inhibition at 250 g/ha (rice (Oryza sativa L.) [7]): 98%
- inhibition at 250 g/ha [8]: 98%
- inhibition at 250 g/ha [9]: 98%
- inhibition at 250 g/ha [10]: 60%
- inhibition at 250 g/ha (wheat (Triticum spp.) [11]): 10%
- inhibition at 250 g/ha (corn (Zea mays L.) [12]): 20%
- inhibition at 250 g/ha [13]: 95%
- inhibition at 250 g/ha [14]: 98%
- inhibition at 7 g/ha [15]: 95%
- inhibition at 7 g/ha [16]: 80%
- inhibition at 7 g/ha [17]: 75%
- inhibition at 7 g/ha (rice (Oryza sativa L.) [18]): 60%
- inhibition at 7 g/ha [19]: 80%
- inhibition at 7 g/ha [20]: 90%
- inhibition at 7 g/ha [21]: 70%
- inhibition at 7 g/ha (wheat (Triticum spp.) [22]): 0%

SMILES: CCOCc1c(S(C)(=O)=O)ccc(C(=O)c2cnn(C)c2OC(C)OC(=O)OCC)c1C (stereo not shown) [Compound No. 1-4, 1-(4-(3-(Ethoxymethyl)-2-methyl-4-(methylsulfonyl)benzoyl)-1-methyl-1H-pyrazol-5-yloxy)ethyl ethyl carbonate]
- inhibition at 63 g/ha [1]: 20%
- inhibition at 63 g/ha [2]: 100%
- inhibition at 63 g/ha [3]: 60%
- inhibition at 63 g/ha [4]: 70%
- inhibition at 250 g/ha [5]: 98%
- inhibition at 250 g/ha [6]: 100%
- inhibition at 250 g/ha (rice (Oryza sativa L.) [7]): 60%
- inhibition at 250 g/ha [8]: 80%
- inhibition at 250 g/ha [9]: 98%
- inhibition at 250 g/ha [10]: 40%
- inhibition at 250 g/ha (wheat (Triticum spp.) [11]): 0%
- inhibition at 250 g/ha (corn (Zea mays L.) [12]): 0%
- inhibition at 250 g/ha [13]: 90%
- inhibition at 250 g/ha [14]: 80%
- inhibition at 7 g/ha [15]: 95%
- inhibition at 7 g/ha [16]: 80%
- inhibition at 7 g/ha [17]: 80%
- inhibition at 7 g/ha [19]: 75%
- inhibition at 7 g/ha [20]: 95%
- inhibition at 7 g/ha [21]: 80%
- inhibition at 7 g/ha (wheat (Triticum spp.) [22]): 0%
- inhibition at 7 g/ha (corn (Zea mays L.) [23]): 0%

SMILES: CCn1ncc(C(=O)c2ccc(S(C)(=O)=O)c(C(=O)OC)c2C)c1OC(C)OC(=O)OC (stereo not shown) [Compound No. 2-2, Methyl 3-(5-(1-(methoxycarbonyloxy)ethoxy)-1-ethyl-1H-pyrazole-4-carbonyl)-2-methyl-6-(methylsulfonyl)benzoate]
- inhibition at 63 g/ha [1]: 80%
- inhibition at 63 g/ha [2]: 100%
- inhibition at 63 g/ha [3]: 80%
- inhibition at 63 g/ha [4]: 90%
- inhibition at 7 g/ha [15]: 80%
- inhibition at 7 g/ha [16]: 98%
- inhibition at 7 g/ha [17]: 95%
- inhibition at 7 g/ha (rice (Oryza sativa L.) [18]): 50%
- inhibition at 7 g/ha [19]: 80%
- inhibition at 7 g/ha [20]: 98%
- inhibition at 7 g/ha (wheat (Triticum spp.) [22]): 0%
- inhibition at 7 g/ha (corn (Zea mays L.) [23]): 0%
- inhibition at 7 g/ha [24]: 70%
